# According to patent US20250215030A1, “STAT MODULATORS AND USES THEREOF” (Recludix Pharma, Inc., priority 2022, published 2025):
# Assays:
# [1] = target: T1, Recombinant STAT6 protein (STAT6(W123-T658)) (Homo sapiens, UniProt P42226); experiment: STAT6 Fluorescence Polarization (FP) Assay; format: binding; conditions: STAT6(W123-T658) 250 nM, probe 5-FAM-ApYKPFQDLI-NH2 2 nM, 45-minute incubation
# T1 construct: STAT6(W123-T658)
# T1 sequence (P42226 123-658): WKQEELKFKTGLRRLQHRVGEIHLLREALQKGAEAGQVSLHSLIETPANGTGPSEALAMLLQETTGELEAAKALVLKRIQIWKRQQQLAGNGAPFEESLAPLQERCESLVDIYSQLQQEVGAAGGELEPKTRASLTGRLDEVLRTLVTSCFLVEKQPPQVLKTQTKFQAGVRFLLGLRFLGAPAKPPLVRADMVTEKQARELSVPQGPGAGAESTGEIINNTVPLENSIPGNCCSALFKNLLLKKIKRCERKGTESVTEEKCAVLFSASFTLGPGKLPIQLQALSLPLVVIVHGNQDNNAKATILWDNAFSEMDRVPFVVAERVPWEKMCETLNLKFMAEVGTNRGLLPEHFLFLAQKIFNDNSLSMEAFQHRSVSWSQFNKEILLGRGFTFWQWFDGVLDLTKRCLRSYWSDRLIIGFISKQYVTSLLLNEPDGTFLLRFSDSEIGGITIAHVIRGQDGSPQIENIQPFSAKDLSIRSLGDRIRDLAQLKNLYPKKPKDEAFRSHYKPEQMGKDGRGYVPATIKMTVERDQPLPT
# Protocol: STAT6 Fluorescence Polarization (FP) Assay
# An FP assay was developed to determine IC50 values for test substances. Recombinant STAT6 protein (STAT6(W123-T658)) at 250 nM was combined with a fluorescently labeled, phosphotyrosine peptide probe (5-FAM-ApYKPFQDLI-NH2) at 2 nM in FP buffer (10 mM HEPES pH 7.4, 50 mM NaCl, 1 mM EDTA, 0.05% Tween 20, 2 mM DTT). 50 μL of STAT6-probe mixture was added to serial diluted compounds in black, 96-well plates (Greiner BioOne 655076) to a final concentration of 1% DMSO. Reaction components were mixed, and FP was measured after 45-minute incubation at room temperature using a Tecan Spark multimode plate reader. FP signal (mP) was plotted against the log concentration of the test substances and IC50 values were calculated by nonlinear regression analysis using GraphPad Prism software. For STAT6 FP assay, A=≤300 nM; B=>300-3000 nM; C=>3-30 μM; and D=>30 μM.
# [2] = target: T2, Recombinant STAT3 protein (STAT3(G127-I722)) (Homo sapiens, UniProt P40763); experiment: STAT3 Fluorescence Polarization (FP) Assay; format: binding; conditions: STAT3(G127-I722) 25 nM, probe 5-FAM-GpYLPQTV-NH2 2 nM, 45-minute incubation
# T2 construct: STAT3(G127-I722)
# T2 sequence (P40763 127-722, species assumed): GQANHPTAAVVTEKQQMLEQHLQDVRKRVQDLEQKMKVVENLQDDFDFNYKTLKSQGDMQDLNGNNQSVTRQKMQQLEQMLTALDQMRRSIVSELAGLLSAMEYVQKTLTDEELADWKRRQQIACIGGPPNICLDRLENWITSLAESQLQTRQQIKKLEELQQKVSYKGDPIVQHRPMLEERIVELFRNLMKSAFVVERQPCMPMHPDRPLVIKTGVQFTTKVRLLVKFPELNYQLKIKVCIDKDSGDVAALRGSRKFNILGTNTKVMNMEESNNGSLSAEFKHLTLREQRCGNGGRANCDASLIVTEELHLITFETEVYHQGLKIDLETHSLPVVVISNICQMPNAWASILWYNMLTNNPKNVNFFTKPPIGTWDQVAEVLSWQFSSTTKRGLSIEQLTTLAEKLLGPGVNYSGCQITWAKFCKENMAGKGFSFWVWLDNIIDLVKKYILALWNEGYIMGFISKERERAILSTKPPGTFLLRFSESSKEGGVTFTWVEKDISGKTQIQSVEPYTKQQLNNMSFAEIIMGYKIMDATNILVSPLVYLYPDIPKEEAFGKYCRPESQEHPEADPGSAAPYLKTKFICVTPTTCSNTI
# Protocol: STAT3 Fluorescence Polarization (FP) Assay
# An FP assay was developed to determine IC50 values for test substances. Recombinant STAT3 protein (STAT3(G127-I722)) at 25 nM was combined with a fluorescently labeled, phosphotyrosine peptide probe (5-FAM-GpYLPQTV-NH2) at 2 nM in FP buffer (10 mM HEPES pH 7.4, 50 mM NaCl, 1 mM EDTA, 0.05% Tween 20, 2 mM DTT). 50 μL of STAT3-probe mixture was added to serial diluted compounds in black, 96-well plates (Greiner BioOne 655076) to a final concentration of 1% DMSO. Reaction components were mixed, and FP was measured after 45-minute incubation at room temperature using a Tecan Spark multimode plate reader. FP signal (mP) was plotted against the log concentration of the test substances and IC50 values were calculated by nonlinear regression analysis using GraphPad Prism software. For STAT3 FP assay, A=≤100 nM; B=>100-1000 nM; C=>1-10 μM; and D=>10 μM.
SMILES,IC50 [1],IC50 [2]
"N#C[C@@H]1CN(C(=O)[C@@H]2CC[C@@H]3C[C@H]4C[C@H]4C[C@H](NC(=O)c4cc5cc(C(F)(F)P(=O)(O)O)ccc5s4)C(=O)N32)C[C@H]1c1ccccc1 (relative stereo) [Compound 10, ((2-(((3S,6S,7aS,8aR,9aR)-3-((rel-trans)-3-cyano-4-phenylpyrrolidine-1-carbonyl)-5-oxodecahydro-1H-cyclopropa[d]pyrrolo[1,2-a]azocin-6-yl)carbamoyl)benzo[b]thiophen-5-yl)difluoromethyl)phosphonic acid]",≤ 0.3 µM,100 to 1000 nM
"N#C[C@@H]1CN(C(=O)[C@@H]2CC[C@@H]3C[C@@H]4C[C@@H]4C[C@H](NC(=O)c4cc5cc(C(F)(F)P(=O)(O)O)ccc5s4)C(=O)N32)C[C@H]1c1ccccc1 (relative stereo) [Compound 11, ((2-(((3S,6S,7aR,8aS,9aR)-3-((rel-trans)-3-cyano-4-phenylpyrrolidine-1-carbonyl)-5-oxodecahydro-1H-cyclopropa[d]pyrrolo[1,2-a]azocin-6-yl)carbamoyl)benzo[b]thiophen-5-yl)difluoromethyl)phosphonic acid]",≤ 0.3 µM,100 to 1000 nM
"N#C[C@H]1CN(C(=O)[C@@H]2CC[C@@H]3C[C@H]4C[C@H]4C[C@H](NC(=O)c4cc5cc(C(F)(F)P(=O)(O)O)ccc5s4)C(=O)N32)C[C@@]12C(=O)Nc1ccccc12 (single isomer, unassigned) [Compound 27]",0.3 to 3 µM,100 to 1000 nM
"N#C[C@@H]1CN(C(=O)[C@@H]2CC[C@@H]3C[C@H]4C[C@H]4C[C@H](NC(=O)c4cc5cc(C(F)(F)P(=O)(O)O)ccc5s4)C(=O)N32)C[C@]12C(=O)Nc1ccccc12 (single isomer, unassigned) [Compound 28]",≤ 0.3 µM,< 100 nM
"N#C[C@@H]1CN(C(=O)[C@@H]2CC[C@@H]3[C@H]4C[C@H]4C[C@H](NC(=O)c4cc5cc(C(F)(F)P(=O)(O)O)ccc5s4)C(=O)N32)C[C@H]1c1ccccc1 (single isomer, unassigned) [Compound 66, ((2-(((3S,6S,7aS,8aS,8bR)-3-((3S,4R or 3R,4S)-3-cyano-4-phenylpyrrolidine-1-carbonyl)-5-oxodecahydrocyclopropa[c]pyrrolo[1,2-a]azepin-6-yl)carbamoyl)benzo[b]thiophen-5-yl)difluoromethyl)phosphonic acid]",≤ 0.3 µM,1000 to 10000 nM
"O=C(N[C@H]1C[C@@H]2C[C@@H]2C[C@H]2CC[C@@H](C(=O)N3CC[C@@H](C(=O)N4CCOCC4)C3)N2C1=O)c1cc2cc(C(F)(F)P(=O)(O)O)ccc2s1 (single isomer, unassigned) [Compound 98]",3 to 30 µM,100 to 1000 nM
"O=C(N[C@H]1C[C@@H]2C[C@@H]2C[C@H]2CC[C@@H](C(=O)N3CC[C@H](C(=O)N4CCOCC4)C3)N2C1=O)c1cc2cc(C(F)(F)P(=O)(O)O)ccc2s1 (single isomer, unassigned) [Compound 99]",3 to 30 µM,100 to 1000 nM
"O=C(N[C@H]1C[C@H]2C[C@H]2C[C@H]2CC[C@@H](C(=O)N3CC(c4ccon4)C3)N2C1=O)c1cc2cc([C@@H](F)P(=O)(O)O)ccc2s1 (single isomer, unassigned) [Example 344]",3 to 30 µM,< 100 nM
"CCc1ccncc1C1CN(C(=O)[C@@H]2CC[C@@H]3C[C@@H]4C[C@@H]4C[C@H](NC(=O)c4cc5cc([C@H](F)P(=O)(O)O)ccc5s4)C(=O)N32)C1 (single isomer, unassigned) [Example 345]",3 to 30 µM,< 100 nM
"O=C(N[C@H]1C[C@H]2C[C@H]2C[C@H]2CC[C@@H](C(=O)N3CC(c4ccon4)C3)N2C1=O)c1cc2cc([C@H](F)P(=O)(O)O)ccc2s1 (single isomer, unassigned) [Example 346]",3 to 30 µM,< 100 nM
"COc1ccncc1C1CN(C(=O)[C@@H]2CC[C@@H]3C[C@@H]4C[C@@H]4C[C@H](NC(=O)c4cc5cc([C@H](F)P(=O)(O)O)ccc5s4)C(=O)N32)C1 (single isomer, unassigned) [Example 353]",3 to 30 µM,< 100 nM
"COc1ccncc1C1CN(C(=O)[C@@H]2CC[C@@H]3C[C@@H]4C[C@@H]4C[C@H](NC(=O)c4cc5cc([C@@H](F)P(=O)(O)O)ccc5s4)C(=O)N32)C1 (single isomer, unassigned) [Example 354]",> 30 µM,< 100 nM
"N#CC1(c2ccccn2)CN(C(=O)[C@@H]2CC[C@@H]3C[C@@H]4C[C@@H]4C[C@H](NC(=O)c4cc5cc([C@H](F)P(=O)(O)O)ccc5s4)C(=O)N32)C1 (single isomer, unassigned) [Example 355]",0.3 to 3 µM,< 100 nM
"N#CC1(c2ccccn2)CN(C(=O)[C@@H]2CC[C@@H]3C[C@@H]4C[C@@H]4C[C@H](NC(=O)c4cc5cc([C@@H](F)P(=O)(O)O)ccc5s4)C(=O)N32)C1 (single isomer, unassigned) [Example 356]",3 to 30 µM,< 100 nM
"CCc1ccncc1C1CN(C(=O)[C@@H]2CC[C@@H]3C[C@@H]4C[C@@H]4C[C@H](NC(=O)c4cc5cc([C@@H](F)P(=O)(O)O)ccc5s4)C(=O)N32)C1 (single isomer, unassigned) [Example 357]",3 to 30 µM,< 100 nM
"Cc1cccc(C2CN(C(=O)[C@@H]3CC[C@@H]4C[C@@H]5C[C@@H]5C[C@H](NC(=O)c5cc6cc([C@H](F)P(=O)(O)O)ccc6s5)C(=O)N43)C2)n1 (single isomer, unassigned) [Example 370]",3 to 30 µM,< 100 nM
"Cc1cccc(C2CN(C(=O)[C@@H]3CC[C@@H]4C[C@@H]5C[C@@H]5C[C@H](NC(=O)c5cc6cc([C@@H](F)P(=O)(O)O)ccc6s5)C(=O)N43)C2)n1 (single isomer, unassigned) [Example 371]",3 to 30 µM,< 100 nM
"O=C(N[C@H]1C[C@H]2C[C@H]2C[C@H]2CC[C@@H](C(=O)N3CC(c4cnccc4N4CCOCC4)C3)N2C1=O)c1cc2cc([C@@H](F)P(=O)(O)O)ccc2s1 (single isomer, unassigned) [Example 391]",> 30 µM,< 100 nM
"CN(C)c1ccncc1C1CN(C(=O)[C@@H]2CC[C@@H]3C[C@@H]4C[C@@H]4C[C@H](NC(=O)c4cc5cc([C@@H](F)P(=O)(O)O)ccc5s4)C(=O)N32)C1 (single isomer, unassigned) [Example 394]",3 to 30 µM,< 100 nM
"O=C(N[C@H]1C[C@@H]2C[C@@H]2CC2CC[C@@H](C(=O)N3CC(c4cncnc4N4CCC4)C3)N2C1=O)c1cc2cc([C@@H](F)P(=O)(O)O)ccc2s1 (single isomer, unassigned) [Example 401]",3 to 30 µM,< 100 nM
"O=C(N[C@H]1C[C@@H]2C[C@@H]2CC2CC[C@@H](C(=O)N3CC(c4cncnc4N4CCC4)C3)N2C1=O)c1cc2cc([C@H](F)P(=O)(O)O)ccc2s1 (single isomer, unassigned) [Example 402]",0.3 to 3 µM,< 100 nM
"CN1CCN(c2ccncc2C2CN(C(=O)[C@@H]3CC[C@@H]4C[C@H]5C[C@H]5C[C@H](NC(=O)c5cc6cc([C@H](F)P(=O)(O)O)ccc6s5)C(=O)N43)C2)CC1 (single isomer, unassigned) [Example 403]",3 to 30 µM,< 100 nM
"CN1CCN(c2ccncc2C2CN(C(=O)[C@@H]3CC[C@@H]4C[C@H]5C[C@H]5C[C@H](NC(=O)c5cc6cc([C@@H](F)P(=O)(O)O)ccc6s5)C(=O)N43)C2)CC1 (single isomer, unassigned) [Example 404]",> 30 µM,< 100 nM
"O=C(N[C@H]1C[C@@H]2C[C@@H]2C[C@H]2CC[C@@H](C(=O)N3CC(c4cnccc4N4CCOCC4)C3)N2C1=O)c1cc2cc([C@@H](F)P(=O)(O)O)ccc2s1 (single isomer, unassigned) [Example 405]",3 to 30 µM,< 100 nM
